Results reported in US12077786B2, “Methods of cell selection and modifying cell metabolism” (LONZA LTD, priority 2018, dated 2024).

Legend:
[1] = system: cell pools constructed using the P5CS/eGFP vector (GSKO cells); test: P5CS/eGFP cell pools grown without proline with P5CS inhibitor, 96 deep well plates; format: cell-based, Chinese hamster; conditions: with increase in inhibitor concentration; media lacking proline; 24-216 hours
Experimental: FIGS. 8A-8F are a series of diagrams showing cell pools generated using P5CS overexpression and cultured in the absence of proline, and in the presence of L-azetidine-2-carboxylic acid, a P5CS inhibitor. L-azetidine-2-carboxylic acid was added at a variety of different concentrations and cells were cultured in 96 deep well plates for 9 days. These cells were analyzed for cell growth, as measured by viable cell concentration (FIG. 8A) and culture viability (FIG. 8B). Cells were also analyzed for mean culture fluorescence (FIG. 8C) and percentage of cells exceeding the predetermined thresholds of 10^2 (FIG. 8D) and 10^3 (FIG. 8E).
FIGS. 9A-9F are a series of diagrams showing cell pools generated using P5CS overexpression and cultured in the absence of proline, and in the presence of 3,4-dehydro-L-proline, a P5CS inhibitor. 3,4-dehydro-L-proline was added at a variety of different concentrations and cells were cultured in 96 deep well plates for 9 days. These cells were analyzed for cell growth, as measured by viable cell concentration (FIG. 9A) and culture viability (FIG. 9B). Cells were also analyzed for mean culture fluorescence (FIG. 9C) and percentage of cells exceeding the predetermined thresholds of 10^2 (FIG. 9D) and 10^3 (FIG. 9E).
FIGS. 10A-10F are a series of diagrams showing cell pools generated using P5CS overexpression and cultured in the absence of proline, and in the presence of L-4-thiazolidinecarboxylic acid, a P5CS inhibitor. L-4-thiazolidinecarboxylic acid was added at a variety of different concentrations and cells were cultured in 96 deep well plates for 9 days. These cells were analyzed for cell growth, as measured by viable cell concentration (FIG. 10A) and culture viability (FIG. 10B). Cells were also analyzed for mean culture fluorescence (FIG. 10C) and percentage of cells exceeding the predetermined thresholds of 10^2 (FIG. 10D) and 10^3 (FIG. 10E).
In order to assess the capacity of the proline/P5CS system to generate recombinant cell pools, vectors comprising the P5CS gene and a gene of interest were transfected into cells and subsequently cultured in the absence of proline in an attempt to generate recombinant cell pools. Briefly, 1×10^7 Lonza's GSKO cells were electroporated with 20 μg plasmid which was first linearized using PvuI restriction enzyme (NEB) and purified using sodium acetate and ethanol precipitation. The construct used contained both the P5CS gene for evaluation as a selection marker and eGFP as a reporter gene. Transfections were carried out in CM76 medium in the absence of proline but supplemented with L-glutamine to achieve a final concentration of 6 mM. The cells were then cultured in 25 ml of this medium in a T75 flask for 10 days before being transferred to 10 ml suspension culture, also in proline absent medium. The resulting pool was analyzed using flow cytometry. Cell samples were first centrifuged at 1,000 rpm for 5 minutes and resuspended in 500 μl PBS. Samples were then loaded onto the probe of a FACScalibur™ (BD biosciences) and fluorescence intensity was measured in relation to the cell count. The forward scatter (FSC) was measure using the E-1 amplifier and side scatter (SSC) set to 465 whilst FL1 recorded cells at 473; all settings were converted to Log scales. In order to facilitate the adherence of suspension cells, coverslips were first submerged in poly-L-lysine and incubated for 15 minutes at room temperature. Coverslips were then removed and left to dry in a sterile environment before transferring to a 24 well plate. Cells were cultured at 37° C. overnight to facilitate adhering of cells to the coverslip before aspirating the medium and adding 250 μl of 4% paraformaldehyde in PBS and incubating for 20 minutes at 37° C. to fix cells. Subsequently two 1 ml PBS washes were carried out before 250 μl 0.1% triton X100 in PBS was added and incubated for 5 minutes at room temperature to permeablize cells. […]

[2] = system: cell pools constructed using the P5CS/eGFP vector (GSKO cells); test: P5CS/eGFP cell pools grown without proline with P5CS inhibitor, static 24 well plates; format: cell-based, Chinese hamster; conditions: with increase in inhibitor concentration; media lacking proline; 24-216 hours
Experimental: FIGS. 11A-11E are a series of diagrams showing analysis of cell pools generated using P5CS overexpression and cultured in the absence of proline, and in the presence of L-azetidine-2-carboxylic acid, a P5CS inhibitor. L-azetidine-2-carboxylic acid was added at a variety of different concentrations and cells were cultured in static 24 well plates for 9 days. These cells were analyzed for cell growth, as measured by viable cell concentration (FIG. 11A) and culture viability (FIG. 11B). Cells were also analyzed for mean culture fluorescence (FIG. 11C) and percentage of cells exceeding the predetermined thresholds of 10^2 (FIG. 11D) and 10^3 (FIG. 11E).
FIGS. 12A-12E are a series of diagrams showing analysis of cell pools generated using P5CS overexpression and cultured in the absence of proline, and in the presence of 3,4-dehydro-L-proline, a P5CS inhibitor. 3,4-dehydro-L-proline was added at a variety of different concentrations and cells were cultured in static 24 well plates for 9 days. These cells were analyzed for cell growth, as measured by viable cell concentration (FIG. 12A) and culture viability (FIG. 12B). Cells were also analyzed for mean culture fluorescence (FIG. 12C) and percentage of cells exceeding the predetermined thresholds of 10^2 (FIG. 12D) and 10^3 (FIG. 12E). […]

Structure (SMILES) | cell growth (viable cell number) [1] | mean fluorescence (eGFP) [1] | cell growth (viable cell number) [2] | mean fluorescence (eGFP) [2]
O=C(O)[C@@H]1C=CCN1 [3,4-dehydro-L-proline] | slower cell growth | higher mean fluorescence |  | 
O=C(O)[C@@H]1CSCN1 [L-4-thiazolidinecarboxylic acid] | slower cell growth | higher mean fluorescence |  | 
O=C(O)[C@@H]1CCN1 [L-azetidine-2-carboxylic acid] | slower cell growth | higher mean fluorescence | slower cell growth | higher mean fluorescence
